In article PMC5647257 (Bioorganic & medicinal chemistry letters, 2017):

Target: HIV-1 protease (Human immunodeficiency virus type 1 group M subtype B, UniProt P04585)
Assay: HIV-1 protease inhibitory potency, assay protocol of Toth and Marshall
Format: biochemical
Details: compared with 13-membered inhibitors 5i and 5j

| Compound | fold reduction of enzyme inhibitory activity over inhibitors 5i and 5j |
| --- | --- |
| COc1ccc2c(c1)COC/C=C\CCCCCN(C[C@@H](O)[C@H](Cc1ccccc1)NC(=O)O[C@H]1CO[C@H]3OCC[C@H]31)S2(=O)=O [5k] | greater than 20 fold |
| COc1ccc2c(c1)COC/C=C/CCCCCN(C[C@@H](O)[C@H](Cc1ccccc1)NC(=O)O[C@H]1CO[C@H]3OCC[C@H]31)S2(=O)=O [5l] | greater than 20 fold |
